Experimental data from ChEMBL document CHEMBL1201862, “PubChem BioAssay data set” (2004).
Activity calls are given as the source filed them.

Assays:
[1] = molecular target: Melanin-concentrating hormone receptor 1 (Homo sapiens, UniProt Q99705); assay: Fluorescence-based counterscreen for antagonists of the G-protein coupled receptor 7 (GPR7): cell-based high throughput dose response assay to identify antagonists of the melanin-concentrating hormone receptor 1 (MCHR1).; format: functional
[2] = molecular target: T1, Neuropeptides B/W receptor type 1 (Homo sapiens, UniProt P48145); assay: Fluorescence-based dose response cell-based high throughput screening assay to identify antagonists of the G-protein coupled receptor 7 (GPR7). [Related pubchem assays: 1952 (Screening assay (GPR7 antagonists).), 1880 (Summary AID.)]; format: functional
T1 sequence (P48145 whole entry): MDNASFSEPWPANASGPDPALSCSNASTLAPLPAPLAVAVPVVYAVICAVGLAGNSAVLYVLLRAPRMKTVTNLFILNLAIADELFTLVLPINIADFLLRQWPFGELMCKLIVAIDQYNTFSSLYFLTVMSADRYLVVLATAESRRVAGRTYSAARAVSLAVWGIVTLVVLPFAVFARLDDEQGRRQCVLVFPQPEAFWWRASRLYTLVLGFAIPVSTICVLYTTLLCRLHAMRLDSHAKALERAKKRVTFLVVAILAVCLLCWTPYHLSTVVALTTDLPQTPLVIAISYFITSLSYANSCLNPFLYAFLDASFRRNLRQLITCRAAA

Cytochrome P450 2C9 = Cytochrome P450 2C9 (Homo sapiens, UniProt P11712); conditions: Potency
BJ [3] = assay: cytotoxicity toward BJ-TERT-LT-ST fibroblasts, dose response, cell-based, RAS-independent, luminescence (AID 1935); format: functional; conditions: Homo sapiens;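 also: BJ fibroblasts immortalized with TERT plus LT and ST oncogenes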
Paired box protein Pax-8 = Paired box protein Pax-8 (Homo sapiens, UniProt Q06710); assay: inhibitors of PAX8-driven TPO luciferase reporter, dose response, RMG-I cells, cherry-pick (AID 687027); format: functional, cell-based;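 also: luciferase reporter driven by Pax8 target thyroperoxidase promoter measured by SteadyGlo luminescence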
BJ [4] = assay: cytotoxicity toward BJ-TERT fibroblasts, dose response, cell-based, RAS-independent, luminescence (AID 1933); format: functional; conditions: Homo sapiens
Vero [5] = assay: host cell cytotoxicity of antiviral hits, dose response, cytotoxicity control for West Nile virus antiviral project, secondary assay (AID 1650); format: functional; conditions: Chlorocebus sabaeus
[6] = Luminescence Cell-Based Dose Response HTS to Identify Inhibitors of 5'UTR Stem-Loop Driven Prion Protein mRNA Translation in H4 Neuroglioblastoma Cells. [Related pubchem assays: 1827 (Project Summary), 1813 (Primary HTS)]; format: functional
Vero [7] = assay: cells; format: functional, cell-based; conditions: Chlorocebus sabaeus
cells = format: functional, cell-based
[8] = non-specific cell cytotoxicity, dose response, cytotoxicity control for PAX8 inhibitor project, plate reader, dry powder samples (AID 743021); format: functional, cell-based
[9] = inhibitors of SNCA 5'UTR-driven reporter translation, confirmation, H4 neuroglioma cells, luminescence (AID 1988); format: functional, cell-based
[10] = inhibitors of firefly luciferase expression or activity, dose response, H4 neuroglioma cells, luminescence (AID 1990); format: functional, cell-based
[11] = inhibitors of SNCA 5'UTR-driven translation, confirmation, luminescence, H4 neuroglioblastoma cells, dose confirmation (AID 2454); format: functional, cell-based;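 also: H4 neuroglioblastoma cells carrying an alpha-synuclein 5'UTR luciferase reporter; potency for inhibition of the luciferase signal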
[12] = cytotoxicity in HEK-293T cells, dose response, cytotoxicity control for TCR NF-kB inhibitor project, luminescence, T-cell screen hits (AID 489026); format: functional, cell-based;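 also: cells exposed to compound about 14 hours before the viability readout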
Vero [13] = assay: cells; format: functional; conditions: Chlorocebus sabaeus
[14] = cytotoxicity toward DRD oncogenic fibroblasts, dose response, cell-based, non-viral oncogenic, luminescence (AID 1934); format: functional; conditions: Homo sapiens
[15] = luciferase reporter signal reduction – luminescence, H4-C neuroglioblastoma cells, dose response (AID 2458); format: functional, cell-based;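 also: H4 neuroglioblastoma cells stably carrying a luciferase reporter gene fusion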
BJ [16] = assay: cytotoxicity toward Ras-transformed BJeLR fibroblasts, dose response, cell-based, alamar blue fluorescence, cherrypicked samples (AID 2631); format: functional; conditions: Homo sapiens;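 also: confirmatory dose-response assay in RAS-dependent BJ fibroblasts engineered with TERT, LT and ST, with cytotoxicity read by fluorescence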
[17] = Luminescence-based counterscreen assay for KLF5 inhibitors: dose response cell-based high throughput screening assay to identify cytotoxic compounds using the IEC-6 intestinal epithelial cell line. [Related pubchem assays: 1700 (Primary screen.), 1834 (Confirmation screen.), 1858 (Summary AID.), 1905 (Counterscreen.)]; format: functional
BJ [18] = assay: cells; format: functional, cell-based; conditions: Homo sapiens
Cytochrome P450 2D6 = Cytochrome P450 2D6 (Homo sapiens, UniProt P10635);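 also: CYP2D6 member of a cytochrome P450 panel assay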
[19] = molecular target: Peroxisome proliferator-activated receptor gamma/Nuclear receptor coactivator 2 (Homo sapiens, UniProt P37231); format: functional;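 also: agonist potency for raising coactivator recruitment to the receptor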
[20] = molecular target: Peroxisome proliferator-activated receptor gamma/Nuclear receptor coactivator 3 (Homo sapiens, UniProt P37231); format: functional;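 also: agonist potency for raising coactivator recruitment to the receptor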
[21] = molecular target: Peroxisome proliferator-activated receptor gamma/Nuclear receptor coactivator 1 (Homo sapiens, UniProt P37231); format: functional;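 also: agonist potency as compounds enhance coactivator SRC-1 recruitment to PPARgamma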

Melanin-concentrating hormone receptor 1, sequence (Q99705 whole entry): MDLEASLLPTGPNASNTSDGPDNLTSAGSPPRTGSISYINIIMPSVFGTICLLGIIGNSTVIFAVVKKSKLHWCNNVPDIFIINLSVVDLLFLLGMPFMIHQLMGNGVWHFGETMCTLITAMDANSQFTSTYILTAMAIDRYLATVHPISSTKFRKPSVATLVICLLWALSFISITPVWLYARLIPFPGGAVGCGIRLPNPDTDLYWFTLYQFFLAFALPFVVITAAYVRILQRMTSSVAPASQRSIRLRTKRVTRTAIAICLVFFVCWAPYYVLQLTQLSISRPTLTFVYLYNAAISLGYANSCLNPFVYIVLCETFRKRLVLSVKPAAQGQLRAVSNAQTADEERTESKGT
Cytochrome P450 2D6, sequence (P10635 whole entry): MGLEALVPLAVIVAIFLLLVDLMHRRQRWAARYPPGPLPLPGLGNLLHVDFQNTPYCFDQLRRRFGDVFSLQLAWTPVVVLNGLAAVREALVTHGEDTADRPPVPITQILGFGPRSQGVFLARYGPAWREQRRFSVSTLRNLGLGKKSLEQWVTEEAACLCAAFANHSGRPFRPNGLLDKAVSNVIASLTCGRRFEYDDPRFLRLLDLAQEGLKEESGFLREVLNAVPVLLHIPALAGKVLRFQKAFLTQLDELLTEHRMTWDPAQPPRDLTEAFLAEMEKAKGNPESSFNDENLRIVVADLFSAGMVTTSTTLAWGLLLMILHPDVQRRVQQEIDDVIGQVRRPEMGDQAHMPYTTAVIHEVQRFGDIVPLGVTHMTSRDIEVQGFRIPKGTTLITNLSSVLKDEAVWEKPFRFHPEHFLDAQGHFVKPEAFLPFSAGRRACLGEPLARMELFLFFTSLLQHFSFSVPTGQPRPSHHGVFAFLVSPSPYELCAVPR
Cytochrome P450 2C9, sequence (P11712 whole entry): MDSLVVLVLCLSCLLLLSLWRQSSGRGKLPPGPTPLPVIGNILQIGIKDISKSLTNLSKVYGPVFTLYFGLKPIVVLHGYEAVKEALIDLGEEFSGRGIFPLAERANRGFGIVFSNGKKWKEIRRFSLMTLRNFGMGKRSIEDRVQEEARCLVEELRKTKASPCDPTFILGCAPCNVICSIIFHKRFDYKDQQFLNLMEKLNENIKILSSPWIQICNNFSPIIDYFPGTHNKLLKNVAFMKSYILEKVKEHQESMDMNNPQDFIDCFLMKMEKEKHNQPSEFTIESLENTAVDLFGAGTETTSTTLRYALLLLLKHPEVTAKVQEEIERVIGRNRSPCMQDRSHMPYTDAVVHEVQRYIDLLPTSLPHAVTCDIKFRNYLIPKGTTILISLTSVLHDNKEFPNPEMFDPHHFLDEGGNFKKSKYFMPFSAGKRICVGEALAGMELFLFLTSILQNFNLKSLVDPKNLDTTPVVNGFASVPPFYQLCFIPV
Peroxisome proliferator-activated receptor gamma/Nuclear receptor coactivator 2, sequence (P37231 whole entry): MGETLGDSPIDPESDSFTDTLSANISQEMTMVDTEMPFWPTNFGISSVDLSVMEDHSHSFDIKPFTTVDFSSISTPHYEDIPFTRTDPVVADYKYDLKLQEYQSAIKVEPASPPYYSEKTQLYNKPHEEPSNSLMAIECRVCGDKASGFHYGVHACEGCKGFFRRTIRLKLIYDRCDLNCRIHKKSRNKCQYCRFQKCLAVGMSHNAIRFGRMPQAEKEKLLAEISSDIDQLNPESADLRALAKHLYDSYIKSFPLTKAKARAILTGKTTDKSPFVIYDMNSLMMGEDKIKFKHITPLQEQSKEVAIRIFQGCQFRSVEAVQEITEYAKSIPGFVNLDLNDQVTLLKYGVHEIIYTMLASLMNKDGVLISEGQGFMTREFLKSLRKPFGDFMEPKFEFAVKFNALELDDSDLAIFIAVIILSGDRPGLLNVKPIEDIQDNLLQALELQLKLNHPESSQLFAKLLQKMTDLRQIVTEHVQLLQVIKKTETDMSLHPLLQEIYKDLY
Peroxisome proliferator-activated receptor gamma/Nuclear receptor coactivator 2, sequence (Q15596 whole entry, further chain): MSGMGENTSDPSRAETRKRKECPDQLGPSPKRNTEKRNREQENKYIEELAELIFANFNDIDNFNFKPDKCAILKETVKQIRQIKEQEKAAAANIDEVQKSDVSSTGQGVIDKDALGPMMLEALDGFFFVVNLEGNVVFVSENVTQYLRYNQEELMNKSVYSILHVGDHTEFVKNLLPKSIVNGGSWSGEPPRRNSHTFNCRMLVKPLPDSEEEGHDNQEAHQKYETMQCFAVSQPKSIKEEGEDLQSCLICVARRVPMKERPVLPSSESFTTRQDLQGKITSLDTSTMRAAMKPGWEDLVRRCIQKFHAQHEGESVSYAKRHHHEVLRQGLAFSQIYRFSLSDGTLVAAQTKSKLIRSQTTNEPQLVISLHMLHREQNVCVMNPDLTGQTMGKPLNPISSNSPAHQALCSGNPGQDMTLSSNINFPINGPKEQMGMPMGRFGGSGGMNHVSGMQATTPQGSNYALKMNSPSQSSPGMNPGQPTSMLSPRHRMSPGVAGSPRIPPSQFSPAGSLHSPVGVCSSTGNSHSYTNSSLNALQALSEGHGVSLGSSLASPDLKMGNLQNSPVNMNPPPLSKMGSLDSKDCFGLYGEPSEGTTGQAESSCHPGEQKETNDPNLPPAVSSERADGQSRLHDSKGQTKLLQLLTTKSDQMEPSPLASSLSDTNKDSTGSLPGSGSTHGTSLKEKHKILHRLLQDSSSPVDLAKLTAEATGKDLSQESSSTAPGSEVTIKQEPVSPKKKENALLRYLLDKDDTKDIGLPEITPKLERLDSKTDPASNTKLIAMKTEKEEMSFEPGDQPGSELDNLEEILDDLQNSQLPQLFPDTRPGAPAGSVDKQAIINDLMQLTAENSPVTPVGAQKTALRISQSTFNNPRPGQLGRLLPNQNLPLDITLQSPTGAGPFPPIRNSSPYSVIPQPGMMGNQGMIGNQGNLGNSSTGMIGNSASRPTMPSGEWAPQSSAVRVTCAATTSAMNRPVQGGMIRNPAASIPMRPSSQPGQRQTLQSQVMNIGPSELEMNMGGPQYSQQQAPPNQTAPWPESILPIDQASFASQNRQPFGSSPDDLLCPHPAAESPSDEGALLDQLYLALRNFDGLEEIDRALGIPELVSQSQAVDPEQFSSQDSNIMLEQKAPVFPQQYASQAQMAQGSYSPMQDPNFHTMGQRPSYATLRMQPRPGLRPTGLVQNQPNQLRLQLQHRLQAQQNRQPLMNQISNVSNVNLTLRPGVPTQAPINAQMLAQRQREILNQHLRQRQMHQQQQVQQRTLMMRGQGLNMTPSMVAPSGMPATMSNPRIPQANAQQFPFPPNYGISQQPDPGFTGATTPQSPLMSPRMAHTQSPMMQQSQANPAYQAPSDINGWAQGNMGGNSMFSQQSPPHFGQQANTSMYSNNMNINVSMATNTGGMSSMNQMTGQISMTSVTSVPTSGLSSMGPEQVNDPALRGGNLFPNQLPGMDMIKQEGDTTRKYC
Paired box protein Pax-8, sequence (Q06710 whole entry): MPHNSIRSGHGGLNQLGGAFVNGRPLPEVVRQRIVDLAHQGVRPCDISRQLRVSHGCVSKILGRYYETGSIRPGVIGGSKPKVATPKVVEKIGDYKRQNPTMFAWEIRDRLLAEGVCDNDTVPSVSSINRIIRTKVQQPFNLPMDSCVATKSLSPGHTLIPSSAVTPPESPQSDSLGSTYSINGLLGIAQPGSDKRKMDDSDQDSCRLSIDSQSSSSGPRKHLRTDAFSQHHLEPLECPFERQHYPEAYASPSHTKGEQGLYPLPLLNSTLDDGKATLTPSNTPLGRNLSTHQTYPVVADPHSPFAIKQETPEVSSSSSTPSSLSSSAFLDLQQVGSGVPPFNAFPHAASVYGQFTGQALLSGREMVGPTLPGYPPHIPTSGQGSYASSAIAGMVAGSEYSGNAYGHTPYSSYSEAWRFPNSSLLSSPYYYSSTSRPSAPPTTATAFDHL

With `COc1ccccc1N(C(=O)c1ccco1)C(C(=O)NC1CCCCC1)c1cc(OC)c(OC)c(OC)c1` (configuration not stated) the IC50 [1] was > 43.8 µM (not active) and the IC50 [2] was > 43.8 µM (not active).
In the case of `CCOC(=O)OCC1OC(c2ccc(C(C)=O)cc2)C=CC1Oc1ccc(-c2ccccc2)cc1` (configuration not stated), the AC50 (Cytochrome P450 2C9) is reported as 5.01 µM (inconclusive).
With `CCCC/N=C/[C@]12CCC(O)CC1(O)CCC1[C@@H]2CC[C@]2(C)[C@H](C3C=CC(=O)O3)CCC12O` (some centres not stated) the EC50 (BJ [3]) was 3.01 µM (inconclusive), the AC50 (Paired box protein Pax-8) was 2.19 µM (active) and the EC50 (BJ [4]) was 321 nM (active). For the same compound, the CC50 (Vero [5]) was 960 nM (active), the EC50 [6] was < 100 nM (active) and the IC50 (Vero [7]) was < 50 nM (active). For the same compound, the EC50 (cells) was 263 nM (active), the AC50 [8] was 55.4 µM (active) and the EC50 [9] was < 100 nM (active). The EC50 [10] was < 100 nM (active), the EC50 [11] was 203 nM (active) and the IC50 [12] was > 80 µM (inactive). The CC50 (Vero [13]) was 1.27 µM (active), the EC50 [14] was 372 nM (active) and the EC50 [15] was 238 nM (active). For the same compound, the EC50 (BJ [16]) was 450 nM (active), the IC50 [17] was > 39.8 µM (not active) and the EC50 (BJ [18]) was 538 nM (active).
With `Cc1ccc(NCC(=O)N/N=C/c2ccc(OC(=O)c3ccco3)cc2)cc1` the IC50 [1] was > 43.8 µM (not active), the IC50 [2] was > 43.8 µM (not active) and the AC50 (Cytochrome P450 2D6) was 15.8 µM (inconclusive).
With `S=C(NCc1ccc(Cl)cc1Cl)Nc1ccccc1` the EC50 [19] was > 79.4 µM (not active), the EC50 [20] was 67.3 µM (not active) and the EC50 [21] was > 79.4 µM (not active).
